PubChem BioAssay AID2060609 (Molecular Pharmacology Branch, DTP, NCI, 2025)
“And” between values parts separate entries of the source, which are not always exact repeats. Identical values can stand only once.

System: 855422-203-R-J1-PDC complex spheroids, viability
Assay: Anticancer human tumor 855422-203-R-J1-PDC patient-derived bladder carcinoma cell line growth inhibition [CLK]
Details: for viability, T/C: stronger effect = lower value
How it was run: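 Multi-cell-type spheroids combined patient-derived tumor cells with HUVEC endothelial cells and human mesenchymal stem cells. Paired agents were dosed in half-log steps down from about clinical Cmax, or from 10 microM where Cmax was unknown.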

[1] = curve of first compound, second compound 0.0316 µM
[2] = curve of first compound, second compound 0.1 µM
[3] = curve of first compound, second compound 0.316 µM
[4] = curve of first compound, second compound 1 µM
[5] = curve of first compound, second compound 3.16 µM
[6] = curve of first compound, second compound 10 µM
[7] = second compound 0.0316 µM, first compound 0.0316 µM
[8] = second compound 0.0316 µM, first compound 0.1 µM
[9] = second compound 0.0316 µM, first compound 0.316 µM
[10] = second compound 0.0316 µM, first compound 1 µM
[11] = second compound 0.0316 µM, first compound 3.16 µM
[12] = second compound 0.0316 µM, first compound 10 µM
[13] = second compound 0.1 µM, first compound 0.0316 µM
[14] = second compound 0.1 µM, first compound 0.1 µM
[15] = second compound 0.1 µM, first compound 0.316 µM
[16] = second compound 0.1 µM, first compound 1 µM
[17] = second compound 0.1 µM, first compound 3.16 µM
[18] = second compound 0.1 µM, first compound 10 µM
[19] = second compound 0.316 µM, first compound 0.0316 µM
[20] = second compound 0.316 µM, first compound 0.1 µM
[21] = second compound 0.316 µM, first compound 0.316 µM
[22] = second compound 0.316 µM, first compound 1 µM
[23] = second compound 0.316 µM, first compound 3.16 µM
[24] = second compound 0.316 µM, first compound 10 µM
[25] = second compound 1 µM, first compound 0.0316 µM
[26] = second compound 1 µM, first compound 0.1 µM
[27] = second compound 1 µM, first compound 0.316 µM
[28] = second compound 1 µM, first compound 1 µM
[29] = second compound 1 µM, first compound 3.16 µM
[30] = second compound 1 µM, first compound 10 µM
[31] = second compound 3.16 µM, first compound 0.0316 µM
[32] = second compound 3.16 µM, first compound 0.1 µM
[33] = second compound 3.16 µM, first compound 0.316 µM
[34] = second compound 3.16 µM, first compound 1 µM
[35] = second compound 3.16 µM, first compound 3.16 µM
[36] = second compound 3.16 µM, first compound 10 µM
[37] = second compound 10 µM, first compound 0.0316 µM
[38] = second compound 10 µM, first compound 0.1 µM
[39] = second compound 10 µM, first compound 0.316 µM
[40] = second compound 10 µM, first compound 1 µM
[41] = second compound 10 µM, first compound 3.16 µM
[42] = second compound 10 µM, first compound 10 µM
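Also: spheroids exposed to drugs for seven days before readout.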
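For viability, T/C in this document: 100% = DMSO vehicle control wells.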

Nc1ccccc1NC(=O)c1ccc(CNC(=O)OCc2cccnc2)cc1 + CN1CCN(c2cc(C(=O)Nc3cc4cc(-c5cnn(C)c5)ccc4cn3)ccn2)CC1
IC50 [1]: 0.846 µM
IC50 [2]: 0.486 µM
IC50 [3]: < 0.0316 µM
IC50 [4]: < 0.0316 µM
IC50 [5]: < 0.0316 µM
IC50 [6]: < 0.0316 µM
viability, T/C [7]: 87%
viability, T/C [8]: 72.8%
viability, T/C [9]: 68.8%
viability, T/C [10]: 49%
viability, T/C [11]: 19.2%
viability, T/C [12]: 0.56%
viability, T/C [13]: 65.2%
viability, T/C [14]: 75.4%
viability, T/C [15]: 58.4%
viability, T/C [16]: 33%
viability, T/C [17]: 10.7%
viability, T/C [18]: 0.05%
viability, T/C [19]: 5.43%
viability, T/C [20]: 5.82%
viability, T/C [21]: 9.34%
viability, T/C [22]: 3.91%
viability, T/C [23]: 0.28%
viability, T/C [24]: 0.06%
viability, T/C [25]: 0.15%
viability, T/C [26]: 0.19%
viability, T/C [27]: 0.13%
viability, T/C [28]: 0.09%
viability, T/C [29]: 0.12%
viability, T/C [30]: 0.09%
viability, T/C [31]: 0.53%
viability, T/C [32]: 1.31%
viability, T/C [33]: 0.28%
viability, T/C [34]: 0.49%
viability, T/C [35]: 0.96%
viability, T/C [36]: 0.28%
viability, T/C [37]: 0.2%
viability, T/C [38]: 0.34%
viability, T/C [39]: 0.42%
viability, T/C [40]: 0.36%
viability, T/C [41]: 0.31%
viability, T/C [42]: 0.24%

Cn1ncnc1[C@H]1c2n[nH]c(=O)c3cc(F)cc(c23)N[C@@H]1c1ccc(F)cc1
viability, T/C (compound 0.000316 µM): 105% and 134%
viability, T/C (compound 0.001 µM): 97.5% and 96.9%
viability, T/C (compound 0.00316 µM): 110% and 130%
viability, T/C (compound 0.01 µM): 113% and 102%
viability, T/C (compound 0.0316 µM): 121% and 158%
viability, T/C (compound 0.1 µM): 110% and 141%
IC50 (curve of compound): > 0.1 µM

COC1C=CCC(C)C(C)S(=O)(=O)NC(=O)c2ccc3c(c2)N(CC2CCC21)CC1(CCCc2cc(Cl)ccc21)CO3 (stereo not drawn) + CN1CCN(c2cc(C(=O)Nc3cc4cc(-c5cnn(C)c5)ccc4cn3)ccn2)CC1
IC50 [1]: 5.97 µM
IC50 [2]: 4.81 µM
IC50 [3]: < 0.0316 µM
IC50 [4]: < 0.0316 µM
IC50 [5]: < 0.0316 µM
IC50 [6]: < 0.0316 µM
viability, T/C [7]: 89.7%
viability, T/C [8]: 104%
viability, T/C [9]: 101%
viability, T/C [10]: 105%
viability, T/C [11]: 110%
viability, T/C [12]: 7.64%
viability, T/C [13]: 73.2%
viability, T/C [14]: 79.6%
viability, T/C [15]: 78.4%
viability, T/C [16]: 77.5%
viability, T/C [17]: 74.4%
viability, T/C [18]: 7.3%
viability, T/C [19]: 5.49%
viability, T/C [20]: 8.06%
viability, T/C [21]: 8.27%
viability, T/C [22]: 8.14%
viability, T/C [23]: 9.01%
viability, T/C [24]: 3.13%
viability, T/C [25]: 0.17%
viability, T/C [26]: 0.15%
viability, T/C [27]: 0.14%
viability, T/C [28]: 0.18%
viability, T/C [29]: 0.12%
viability, T/C [30]: 0.64%
viability, T/C [31]: 0.29%
viability, T/C [32]: 0.46%
viability, T/C [33]: 0.42%
viability, T/C [34]: 0.42%
viability, T/C [35]: 0.31%
viability, T/C [36]: 0.15%
viability, T/C [37]: 0.31%
viability, T/C [38]: 0.16%
viability, T/C [39]: 0.31%
viability, T/C [40]: 0.39%
viability, T/C [41]: 0.95%
viability, T/C [42]: 0.32%

Cn1ncnc1[C@H]1c2n[nH]c(=O)c3cc(F)cc(c23)N[C@@H]1c1ccc(F)cc1 + CNC(=O)c1ccc(Nc2nc(OC3CCCC3)c3c(-c4ccc5nc(C)oc5c4)c[nH]c3n2)c(OC)c1
IC50 [1]: > 0.1 µM
IC50 [2]: 0.036 µM
IC50 [3]: < 0.000316 µM
IC50 [4]: < 0.000316 µM
IC50 [5]: < 0.000316 µM
IC50 [6]: < 0.000316 µM
viability, T/C (second compound 0.0316 µM, first compound 0.000316 µM): 118%
viability, T/C (second compound 0.0316 µM, first compound 0.001 µM): 102%
viability, T/C (second compound 0.0316 µM, first compound 0.00316 µM): 126%
viability, T/C (second compound 0.0316 µM, first compound 0.01 µM): 109%
viability, T/C [7]: 102%
viability, T/C [8]: 110%
viability, T/C (second compound 0.1 µM, first compound 0.000316 µM): 57.1%
viability, T/C (second compound 0.1 µM, first compound 0.001 µM): 59.4%
viability, T/C (second compound 0.1 µM, first compound 0.00316 µM): 45.4%
viability, T/C (second compound 0.1 µM, first compound 0.01 µM): 66.2%
viability, T/C [13]: 43.5%
viability, T/C [14]: 47.3%
viability, T/C (second compound 0.316 µM, first compound 0.000316 µM): 19.1%
viability, T/C (second compound 0.316 µM, first compound 0.001 µM): 22.2%
viability, T/C (second compound 0.316 µM, first compound 0.00316 µM): 20.5%
viability, T/C (second compound 0.316 µM, first compound 0.01 µM): 24.7%
viability, T/C [19]: 24.2%
viability, T/C [20]: 21.5%
viability, T/C (second compound 1 µM, first compound 0.000316 µM): 21%
viability, T/C (second compound 1 µM, first compound 0.001 µM): 17.4%
viability, T/C (second compound 1 µM, first compound 0.00316 µM): 18%
viability, T/C (second compound 1 µM, first compound 0.01 µM): 18.8%
viability, T/C [25]: 18.4%
viability, T/C [26]: 18.2%
viability, T/C (second compound 3.16 µM, first compound 0.000316 µM): 17.9%
viability, T/C (second compound 3.16 µM, first compound 0.001 µM): 17.6%
viability, T/C (second compound 3.16 µM, first compound 0.00316 µM): 22.1%
viability, T/C (second compound 3.16 µM, first compound 0.01 µM): 18.5%
viability, T/C [31]: 21.7%
viability, T/C [32]: 19.3%
viability, T/C (second compound 10 µM, first compound 0.000316 µM): 20.3%
viability, T/C (second compound 10 µM, first compound 0.001 µM): 21.9%
viability, T/C (second compound 10 µM, first compound 0.00316 µM): 19.2%
viability, T/C (second compound 10 µM, first compound 0.01 µM): 22%
viability, T/C [37]: 18%
viability, T/C [38]: 15.5%
